Reference: US20230003718A1, “METHODS FOR ASSESSING RATES OF DNA REPAIR” (The Johns Hopkins University, priority 2021, published 2023)
Entries after “also recorded” stand apart in the source; their conditions may differ. Where two headings read alike, the source gives them in different places.

Tests used:
Type in all cases: cell-based
[1] = test system: homologous recombination (HR) repair of Cas9 DSB in HEK293FT cells; assay: RepairSwitch assay, rate of HR (EGFP to BFP switch, flow cytometry); conditions: for IC50: RepairSwitch, 1 week after transfection, read-out: IC50 for inhibition of HR rate; for Effect on rate of HR: dose range 1 nm to 10 uM
Description: (§1) All cell lines were plated in 12-well plates at 2.5E5 cells/well in their respective growth mediums. The growth medium was then replaced after 24-48 hours and the cells were transfected with lug of CRISPR/Cas9 gRNA construct, lug of HR repair template, or both gRNA and HR repair template (2 ug total) in combination using FuGENE HD (Promega) at a FuGENE to DNA ratio of 3:1. The DNA was mixed with Opti-MEM (50 ul Opti-MEM/ug DNA) and FuGENE was added for an incubation period of 15 minutes before being added dropwise to the well. If drug is being utilized, cells are dosed immediately prior to transfection. Fresh growth medium was replaced every 48-72 hours. Cells were kept in culture for 1 week before assessment of fluorescence via flow cytometry.
(§2) All drugs were dissolved in DMSO as per Selleck instructions. For cell-based work drugs were diluted to a final concentration of 0.001% DMSO. All drugs were given in a dose range of 1 nm to 10 uM, unless toxicity was shown in Incucyte proliferation assays (S1, S2).
(§3) Medium was removed from 12-well plates and cells were detached from plate using TrypLE Express. FBS containing medium was used to neutralize TrypLE Express and cells were collected and spun down at 1000 RPM for 5 min. Cell pellets were then washed with PBS twice before resuspension in 500 ul PBS and put on ice. Prior to flow of each sample, cells were resuspended and put through a cell-strainer cap on the flow tube. Cells were gated to ensure single cell population as well as high DsRed expression. For each sample, 10,000-30,000 high DsRed expressing cells were counted depending on sample concentration, and assessed for both EGFP and BFP expression. FlowJo was utilized to analyze all flow cytometry results and to produce statistics on each population.
Graphpad Prism was utilized to visualize statistical results from FlowJo. Additionally, it was utilized to provide statistical analyses of p value using unpaired t-tests.
The RepairSwitch assay was developed to measure the balance of HR- and NHEJ-mediated double-strand break (DSB) repair. To accomplish this, it was necessary to design assay vectors that could be lenti-virally transduced into cells and would thereby be incorporated into the genome. […] Additionally, it allowed DsRed to serve as a transduction control to ensure vector integration at an MOI of 0.3, while EGFP served as a target for CRISPR/Cas9 induced DSB. […] Additionally, in conjunction with the administration of the CRISPR/Cas9 EGFP gRNA, exogenous single stranded DNA oligos were administered in excess and act as the repair template. In this system, the resulting fluorescence, post CRISPR/Cas9 cutting at the target locus, is dependent on the method of repair. Upon utilization of the repair template in repair via homologous recombination (HR) the resulting locus will be converted from EGFP to BFP. This is possible due to the sequence similarity of these fluorescent proteins, which differ in only two bases, resulting in the substitution of two adjacent amino acids. […] Either, the EGFP fluorescence will be extinguished due to the error prone repair, or it is possible for the EGFP protein to be repaired correctly or with a silent mutation via NHEJ, thereby producing a viable fluorescent signal. […] A schematic of the RepairSwitch assay readout (FIG. 1B) provides a concise overview of the possible fluorescent outcomes and their respective implications.

[2] = test system: non-homologous end joining (NHEJ) repair of Cas9 DSB in HEK293FT cells; assay: RepairSwitch assay, rate of NHEJ (loss of EGFP, flow cytometry); conditions: dose range 1 nm to 10 uM
Description: as §1, §2
Medium was removed from 12-well plates and cells were detached from plate using TrypLE Express. FBS containing medium was used to neutralize TrypLE Express and cells were collected and spun down at 1000 RPM for 5 min. […] For each sample, 10,000-30,000 high DsRed expressing cells were counted depending on sample concentration, and assessed for both EGFP and BFP expression. […]
(§4) The RepairSwitch assay was developed to measure the balance of HR- and NHEJ-mediated double-strand break (DSB) repair. […] In this system, the resulting fluorescence, post CRISPR/Cas9 cutting at the target locus, is dependent on the method of repair. […] Either, the EGFP fluorescence will be extinguished due to the error prone repair, or it is possible for the EGFP protein to be repaired correctly or with a silent mutation via NHEJ, thereby producing a viable fluorescent signal. […] A schematic of the RepairSwitch assay readout (FIG. 1B) provides a concise overview of the possible fluorescent outcomes and their respective implications.

[3] = test system: homologous recombination (HR) repair of Cas9 DSB in HCT116 cells; assay: cells; conditions: for Effect on rate of HR: HCT116 cells
Description: (§5) All cell lines were plated in 12-well plates at 2.5E5 cells/well in their respective growth mediums. […]. The DNA was mixed with Opti-MEM (50 ul Opti-MEM/ug DNA) and FuGENE was added for an incubation period of 15 minutes before being added dropwise to the well. If drug is being utilized, cells are dosed immediately prior to transfection. Fresh growth medium was replaced every 48-72 hours. Cells were kept in culture for 1 week before assessment of fluorescence via flow cytometry.
(§6) All compounds used can be found listed in Table 1, and all were purchased from Selleck. All drugs were dissolved in DMSO as per Selleck instructions. […].
as §3
Graphpad Prism was utilized to visualize statistical results from FlowJo. […]
as §4

[4] = test system: non-homologous end joining (NHEJ) repair of Cas9 DSB in HCT116 cells; assay: RepairSwitch assay, rate of NHEJ (loss of EGFP, flow cytometry)
Description: as §5, §6
Medium was removed from 12-well plates and cells were detached from plate using TrypLE Express. […] For each sample, 10,000-30,000 high DsRed expressing cells were counted depending on sample concentration, and assessed for both EGFP and BFP expression. […]
The RepairSwitch assay was developed to measure the balance of HR- and NHEJ-mediated double-strand break (DSB) repair. […] In this system, the resulting fluorescence, post CRISPR/Cas9 cutting at the target locus, is dependent on the method of repair. […] Either, the EGFP fluorescence will be extinguished due to the error prone repair, or it is possible for the EGFP protein to be repaired correctly or with a silent mutation via NHEJ, thereby producing a viable fluorescent signal. […]

Molecule | IC50 [1] [nM] | Effect on rate of HR [1] | Effect on rate of NHEJ [2] | IC50 ([1]; 168 h) [nM] | Effect on rate of HR ([1]; listed as decitabine) | Effect on rate of NHEJ ([2]; listed as decitabine) | Effect on rate of HR [3] | Effect on rate of HR ([3]; listed as decitabine) | IC50 ([3]; Homo sapiens, HCT-116, read-out: IC50 for inhibition of HR rate) [nM] | Effect on rate of NHEJ [4] | Effect on rate of NHEJ ([4]; listed as decitabine)
Olaparib | 739 | lower potency in modulating HR and NHEJ; also recorded: subtle reduction in rates of HR | lower potency in modulating HR and NHEJ; also recorded: subtle increase in the rates of NHEJ | – | – | – | – | – | – | – | –
Nc1ncn([C@H]2C[C@H](O)[C@@H](CO)O2)c(=O)n1 [Decitabine] | – | dose responsive decrease in the rates of HR | compensatory increase in the rates of NHEJ | 187 | reduced HR | increased rates of NHEJ | also consistent in HCT116 cells | reduced HR | 1400 | also consistent in HCT116 cells | increased rates of NHEJ
